US11242351B2, “Tricyclic inhibitors of the BCL6 BTB domain protein-protein interaction and uses thereof” (priority 2017, dated 2022)
Where two headings read alike, the source gives them in different places.

What was measured:
[1] = target: BCL6 BTB domain (biotin-thrombin-BCL6 amino acids 1-129) (Homo sapiens (Human), UniProt P41182); assay: Surface Plasmon Resonance (SPR) assay; type: binding; conditions: Biacore T200, single cycle kinetic analysis
Description: Surface Plasmon Resonance (SPR) Assay
SPR studies were performed using a Biacore™ T200 instrument (GE Health Sciences Inc.). […] The Biacore flow rate was set at 100 μl/min. […] Curve fitting and KD calculations were performed with the Biacore T200 Evaluation software (GE Health Sciences Inc).

[2] = tested on: BCL6 reporter construct in SuDHL4-3×BCL6-TK-Luc cells; assay: Cell-based luciferase assay (BCL6 reporter); conditions: 48 h, read-out: Luc IC50
Description: Cell-Based Luciferase Assay:
A BCL6 reporter construct containing three copies of the consensus BCL6 binding site, the TK promoter, and the firefly luciferase gene was stably expressed in SuDHL4 cells after lentivirus infection and selection with Blasticidin. SuDHL4-3×BCL6-TK-Luc cells were seeded into a Viewplate 384-well assay dish at 15,000 cells/well in […] (Alpha-MEM high glucose containing 10% FBS, 25 mM HEPES, […] GlutaMAX, 100 µg/mL Normocin, and […] Gentamycin, Invitrogen). A HP D300 digital dispenser was used to dose cells with DMSO or test compounds across a 10-point range of concentrations (high dose of 10 μM), and cultures were grown in a humidified 5% CO2 incubator at 37° C. After two days, plates were removed from the incubator and equilibrated to room temperature. An equal volume of neolite reporter gene assay reagent was added to each well, and samples were processed according to the manufacturer's instructions (Perkin Elmer). The luminescent signal was measured using an Envision plate reader equipped with a US-Luminescence detector.

[3] = tested on: Karpas422 cells; assay: Tumor cell growth inhibition assay; type: cell-based; conditions: Homo sapiens, KARPAS-422, 144 h, read-out: GI Karpas EC50
Description: Tumor Cell Growth Inhibition Assay:
Karpas422 cells were seeded into a 96-well plate at 2,000 cells/well in 150 μl medium (Alpha-MEM containing 10% FBS, […] Normocin, and […] Gentamycin, Invitrogen). A HP D300 digital dispenser was used to dose cells with DMSO or test compounds across a 10-point range of concentrations (high dose of 5 μM), and cultures were grown in a humidified 5% CO2 incubator at 37° C. After six days, plates were removed from incubator and equilibrated to room temperature. An equal volume of ATPlite assay reagent was added to each well, and samples were processed according to the manufacturer's instructions (Perkin Elmer). The luminescent signal was measured using an Envision plate reader equipped with a US-Luminescence detector.

[4] = SuDHL4-3×BCL6-TK-Luc cells, two days
[5] = Karpas422 cells, six days, ATPlite

SMILES	Kd [1]	IC50 [2, 4]	EC50 [3, 5]	IC50 [2]	EC50 [3]
CCN1CCN(c2cc(NC(=O)Cn3cc(-c4cc(C(N)=O)c(O)c(F)c4F)c4c(=O)n5c(nc43)CCC5)c(Cl)c(F)n2)[C@@H](C)C1 [I-23, (S)-5-(1-(2-((3-chloro-6-(4-ethyl-2-methyl-piperazin-1-yl)-2-fluoro-pyridin-4-yl)amino)-2-oxoethyl)-4-oxo-4,6,7,8-tetrahydro-1H-dipyrrolo [1,2-a:2′,3′-d]pyrimidin-3-yl)-3,4-difluoro-2-hydroxybenzamide]	7.97 nM	91.5 nM	102 nM		
CC1Cc2nc3c(c(-c4cc(C(N)=O)c(O)c(F)c4F)cn3CC(=O)Nc3cc(N4CCOC[C@@H]4C)nc(F)c3Cl)c(=O)n2C1 (stereo partly drawn) [I-64, 5-(1-(2-((3-chloro-2-fluoro-6-((S)-3-methylmorpholino)pyridin-4-yl)amino)-2-oxoethyl)-7-methyl-4-oxo-4,6,7,8-tetrahydro-1H-dipyrrolo [1,2-a:2′,3′-d]pyrimidin-3-yl)-3,4-difluoro-2-hydroxybenzamide]	27.4 nM	380 nM	174 nM		
CCN1CCN(c2cc(NC(=O)Cn3cc(-c4cc(F)c(O)c(C(N)=O)c4)c4c(=O)n5c(nc43)CCC5)c(Cl)c(F)n2)[C@@H](C)C1 [I-81, (S)-5-(1-(2-((3-chloro-6-(4-ethyl-2-methyl-piperazin-1-yl)-2-fluoropyridin-4-yl)amino)-2-oxoethyl)-4-oxo-4,6,7,8-tetrahydro-1H-dipyrrolo[1,2-a:2′,3′-d]pyrimidin-3-yl)-3-fluoro-2-hydroxy-benzamide]	1.55 nM	28.3 nM	31.3 nM		
CC1Cc2nc3c(c(-c4cc(C(N)=O)c(O)c5c4OCO5)cn3CC(=O)Nc3cc(N4CCOC[C@@H]4C)ncc3Cl)c(=O)n2C1 (stereo partly drawn) [I-88, 7-(1-(2-((5-chloro-2-((S)-3-methylmorpho-lino)pyridin-4-yl)amino)-2-oxoethyl)-7-methyl-4-oxo-4,6,7,8-tetrahydro-1H-dipyrrolo[1,2-a:2′,3′-d]pyrimidin-3-yl)-4-hydroxybenzo[d][1,3] dioxole-5-carboxamide]	2.14 nM	39.4 nM	17.6 nM		
C[C@H]1CN(CC2CC2)CCN1c1cc(NC(=O)Cn2cc(-c3cc(C(N)=O)c(O)c(F)c3F)c3c(=O)n4c(nc32)CCC4)c(Cl)c(F)n1 [I-24, (S)-5-(1-(2-((3-chloro-6-(4-(cyclopropylmethyl)-2-methylpiperazin-1-yl)-2-fluoropyridin-4-yl)amino)-2-oxoethyl)-4-oxo-4,6,7,8-tetrahydro-1H-dipyrrolo[1,2-a:2′,3′-d]pyrimidin-3-yl)-3,4-difluoro-2-hydroxy-benzamide]	12.3 nM	152 nM	134 nM		
COc1c(O)c(C(N)=O)cc(-c2cn(CC(=O)Nc3cc(N4CCN(C)C[C@@H]4C)ncc3Cl)c3nc4n(c(=O)c23)CCC4)c1F [I-17, (S)-5-(1-(2-((5-chloro-2-(2,4-dimethyl-piperazin-1-yl)pyridin-4-yl)amino)-2-oxoethyl)-4-oxo-4,6,7,8-tetrahydro-1H-dipyrrolo[1,2-a:2′,3′-d]pyrimidin-3-yl)-4-fluoro-2-hydroxy-3-methoxybenzamide]	49.6 nM	850 nM	985 nM		
C[C@H]1CN(C)CCN1c1cc(NC(=O)Cn2cc(-c3cc(C#N)c(O)c4c3OCO4)c3c(=O)n4c(nc32)CCC4)c(Cl)c(F)n1 [I-67, (S)-N-(3-chloro-6-(2,4-dimethyl-piperazin-1-yl)-2-fluoropyridin-4-yl)-2-(3-(6-cyano-7-hydroxybenzo[d][1,3]dioxol-4-yl)-4-oxo-4,6,7,8-tetrahydro-1H-dipyrrolo[1,2-a:2′,3′-d]pyrimidin-1-yl) acetamide]	6.72 nM			541 nM	874 nM
CC1Cc2nc3c(c(-c4cc(Cl)c(O)c(C(N)=O)c4)cn3CC(=O)Nc3cc(N4CCOC[C@@H]4C)nc(F)c3Cl)c(=O)n2C1 (stereo partly drawn) [I-66, 3-chloro-5-(1-(2-((3-chloro-2-fluoro-6-((S)-3-methylmor-pholino)pyridin-4-yl)amino)-2-oxo-ethyl)-7-methyl-4-oxo-4,6,7,8-tetra-hydro-1H-dipyrrolo [1,2-a:2′,3′-d]pyrimi-din-3-yl)-2-hydroxy-benzamide]	15.9 nM	186 nM	74.2 nM		
C[C@H]1COCCN1c1cc(NC(=O)Cn2cc(-c3cc(C(N)=O)c(O)c(Cl)c3F)c3c(=O)n4c(nc32)CCC4)c(Cl)cn1 [I-13, (S)-3-chloro-5-(1-(2-((5-chloro-2-(3-methyl-morpholino)pyridin-4-yl)amino)-2-oxoethyl)-4-oxo-4,6,7,8-tetra-hydro-1H-dipyrrolo [1,2-a:2′,3′-d]pyrimidin-3-yl)-4-fluoro-2-hydroxybenzamide]	111 nM	1320 nM	1870 nM		
C[C@H]1CN(C)CCN1c1cc(NC(=O)Cn2cc(-c3cc(C(N)=O)c(O)c(Cl)c3F)c3c(=O)n4c(nc32)CCC4)c(Cl)c(F)n1 [I-10, (S)-3-chloro-5-(1-(2-((3-chloro-6-(2,4-dimethylpiperazin-1-yl)-2-fluoropyridin-4-yl)amino)-2-oxoethyl)-4-oxo-4,6,7,8-tetrahydro-1H-dipyrrolo[1,2-a:2′,3′-d]pyrimidin-3-yl)-4-fluoro-2-hydroxy-benzamide]	49.7 nM			448 nM	416 nM
CC1Cc2nc3c(c(-c4cc(Cl)c(O)c(C(N)=O)c4)cn3CC(=O)Nc3cc(N4CCN(C)C[C@@H]4C)nc(F)c3Cl)c(=O)n2C1 (stereo partly drawn) [I-65, 3-chloro-5-(1-(2-((3-chloro-6-((S)-2,4-dimethylpiperazin-1-yl)-2-fluoropyridin-4-yl)amino)-2-oxo-ethyl)-7-methyl-4-oxo-4,6,7,8-tetra-hydro-1H-dipyrrolo [1,2-a:2′,3′-d]pyrimi-din-3-yl)-2-hydroxy-benzamide]	6.28 nM	46.8 nM	42.1 nM		
C[C@H]1CN(C)CCN1c1cc(NC(=O)Cn2cc(-c3cc(C(N)=O)c(O)c(Cl)c3F)c3c(=O)n4c(nc32)CCC4)c(Cl)cn1 [I-12, (S)-3-chloro-5-(1-(2-((5-chloro-2-(2,4-dimethyl-piperazin-1-yl)pyridin-4-yl)amino)-2-oxoethyl)-4-oxo-4,6,7,8-tetrahydro-1H-dipyrrolo[1,2-a:2′,3′-d]pyrimidin-3-yl)-4-fluoro-2-hydroxy-benzamide]	111 nM			994 nM	1470 nM
NC(=O)c1cc(-c2cn(CC(=O)Nc3cc(N4CCCC4)nc(F)c3Cl)c3nc4n(c(=O)c23)CCC4)cc(Cl)c1O [I-74, 3-chloro-5-(1-(2-((3-chloro-2-fluoro-6-(pyrrolidin-1-yl)pyridin-4-yl)amino)-2-oxo-ethyl)-4-oxo-4,6,7,8-tetrahydro-1H-dipyrrolo [1,2-a:2′,3′-d]pyrimidin-3-yl)-2-hydroxy-benzamide]	14.8 nM	148 nM	210 nM		
C[C@H]1CNCCN1c1cc(NC(=O)Cn2cc(-c3cc(C(N)=O)c(O)c(F)c3F)c3c(=O)n4c(nc32)CCC4)c(Cl)c(F)n1 [I-53, (S)-5-(1-(2-((3-chloro-2-fluoro-6-(2-methyl-piperazin-1-yl)pyridin-4-yl)amino)-2-oxo-ethyl)-4-oxo-4,6,7,8-tetrahydro-1H-dipyrrolo [1,2-a:2′,3′-d]pyrimidin-3-yl)-3,4-difluoro-2-hydroxybenzamide]	5.83 nM	504 nM	646 nM		
CCN1CCN(c2cc(NC(=O)Cn3cc(-c4cc(C(N)=O)c(O)c(Cl)c4F)c4c(=O)n5c(nc43)CCC5)c(Cl)c(F)n2)[C@@H](C)C1 [I-28, (S)-3-chloro-5-(1-(2-((3-chloro-6-(4-ethyl-2-methylpiperazin-1-yl)-2-fluoropyridin-4-yl)amino)-2-oxoethyl)-4-oxo-4,6,7,8-tetra-hydro-1H-dipyrrolo [1,2-a:2′,3′-d]pyri-midin-3-yl)-4-fluoro-2-hydroxybenzamide]	135 nM	1340 nM	779 nM		
NC(=O)c1cc(-c2cn(CC(=O)Nc3cc(N4CCCC4)nc(F)c3Cl)c3nc4n(c(=O)c23)CCC4)cc(F)c1O [I-76, 5-(1-(2-((3-chloro-2-fluoro-6-(pyrrolidin-1-yl)pyridin-4-yl)amino)-2-oxoethyl)-4-oxo-4,6,7,8-tetrahydro-1H-dipyrrolo[1,2-a:2′,3′-d]pyrimidin-3-yl)-3-fluoro-2-hydroxy-benzamide]	3.02 nM	85.1 nM	92.8 nM		
